Test results reported in patent publication US10059740B2, “Integrin interaction inhibitors for the treatment of cancer” (H. LEE MOFFITT CANCER CENTER AND RESEARCH INSTITUTE, INC., priority 2010, dated 2018).
Like-named read-outs stand apart in the source and are kept apart here. Starred links: 1 amine or outer side, 2 acyl side, 3 side chain; linkers in the order of their positions; H or OH if unused. Positions of bridges follow the written chain, without caps; N, C: chain ends. Non-standard residues stand in square brackets, D forms with d. Residues, ends and D or L forms follow the SMILES beside them. No end group written: not given here. *: point of attachment. T1 = NH2CH2CH2N(SO2Me)CH2COOH, methylsulfonamido aminoethyl glycine linker; dProlinol(O-CH2CO) = O=C(COC[C@H]1CCCN1[*:1])[*:2]; N(2-Aminoethyl)Gly = O=C(CN(CCN[*:3])[*:1])[*:2]; Nle = CCCC[C@H](N)C(=O)O; Ms = CS(=O)(=O)*; Sar = CNCC(=O)O

Legend:
[1] = tested on: peripheral blood mononuclear cells (PBMC); experiment: Cell death in normal peripheral blood mononuclear cells, annexin V positivity and FACS; type: cell-based; conditions: 6.25-50 ug/ml, six hours
Protocol: Peripheral blood mononuclear cells (PBMC) were isolated from a normal donor. Cells were treated with 6.25, 12.5, 25 and 50 ug/ml for six hours and cell death was measured by annexin V positivity and FACS analysis.
(§1) CD34^+ hematopoietic progenitor cells were isolated from peripheral blood and treated for 2 hrs with integrin interaction inhibitors (12.5 and 50 μg/ml) and then plated in a methylcellulose media supplemented with growth factors supporting myeloid and erythroid colonies. Colonies were counted on day 12 post-plating. […] In addition, we evaluated the toxicity of integrin interaction inhibitors in normal peripheral blood mononuclear cells (PBMC).

[2] = tested on: H929 myeloma cells; type: cell-based; conditions: for activity relative to linear parent peptide (linear D-HYD1): in words
Protocol: H929 cells were treated for 24 hours with varying concentrations of peptide. Cell death was measured by Topro-3 staining and FACS analysis. The IC50 values were obtained from linear regression analysis and an average value was obtained from 3 independent experiments.
Table 4 legend: Structure activity relationship in H929 myeloma cells of cyclic INTEGRIN INTERACTION INHIBITORS derivatives. The minimal bioactive core sequence of INTEGRIN INTERACTION INHIBITORS WSVVM (SEQ ID NO:85) was cyclized using 2 novel reduced amide bond beta turn promoters and KLKLK (SEQ ID NO:27) as the non-recognition sequence. H929 cells were treated with varying concentrations of the indicated peptide for 24 h. Cell viability was determined using Topro-3 staining and FACS analysis after drug treatment. IC50 values were generated from linear regressions generated from the dose response curves (n=mean of 3 independent experiments).
Using combinatorial peptide libraries and a functional binding assay, several peptides have been identified that inhibited α2β1 and α6β1 integrin mediated adhesion of prostate cancer cells to fibronectin, laminin and collagen IV.^1 They identified an all D-amino acid containing peptide referred as HYD1 ([…]) (SEQ ID NO:278) that blocks binding of epithelial prostate carcinoma cells to extracellular matrix components.^2,3 Hazlehurst and co-workers have truncated the N- and C-termini and alanine scan studies identified MVISW (SEQ ID NO:279) as the likely core region of linear D-HYD1 required for biological activity. […] The pentapeptide (KLKLK) (SEQ ID NO:27) was selected as the non-recognition strand to improve the solubility. N- to C-terminus cyclization of linear peptides was done to restrict the number of conformations available to the linear peptide which increases the affinity of the cyclized peptide for its target when the constraint stabilizes the bound conformation of the peptide. We synthesized cyclic D-HYD1 using a novel methylsulfonamide aminoethyl glycine linker T1 that connects two anti-parallel strands. […] The inverso- (peptide 2, Table 4) and partially modified retro-inverso (PMRI) (peptide 10) pentapeptide sequences of the recognition strand of cyclic III (Integrin Interaction Inhibitors also known as cyclic L-HYD1) peptide analogs were subsequently investigated for their potential to block beta integrin mediated cell adhesion. The retro-inverso design of biologically active peptides is a well-known strategy to design all D-amino acid peptides from potentially bioactive all L-peptide sequences with increased stability^4-7.
A colony forming assay was used to compare induced cell death in H929 multiple myeloma cells. Cells were treated with integrin interaction inhibitors, shown in FIG. 5 and Table 4, and cell death was measured following 24 hour peptide treatment by TOPRO-3 staining and FACS analysis.

[3] = Weight and overt toxicity of mice injected with c-HYD1; type: in vivo
Protocol: (§2) Briefly, 50,000 H929 myeloma cells were engrafted into the bone implant for 10 days prior to initiation of peptide treatment. Following tumor engraftment mice were randomized (0 time point) and injected with 8 mg/kg c-HYD1 or vehicle control (VC) daily (I.P. injections) for 14 days and every other day from day 14-28 at which time treatment stopped. Tumor burden was measured by circulating Kappa levels by ELISA weekly. N=10 mice for vehicle control (VC) and 9 mice for c-HYD1 treated.
FIG. 42 is a graph showing the effect of cyclized HYD1 (c-HYD1) injection on the weight of mice.

[4] = tested on: H929 myeloma cells; experiment: MM SCID-Hu in vivo model, tumor burden by circulating Kappa levels (ELISA); design: species or system mice; conditions: 8 mg/kg I.P. daily 14 days, every other day day 14-28; p<0.05 ANOVA vs vehicle
Protocol: as §2, §1

[5] = tested on: U266; experiment: Drug combination, cell viability by CT-Blue assay, Chou and Talalay Combination Index; type: cell-based; conditions: combination with the named agent
[6] = cyclic III peptide analogs, Table 8, H929 cells, TOPRO 3, read-out: IC50

CC[C@@H](C)[C@@H](NC(=O)[C@H](N)CCCCN)C(=O)N[C@H](CCCCN)C(=O)N[C@H](CCSC)C(=O)N[C@@H](C(=O)N[C@@H](C(=O)N[C@H](CO)C(=O)N[C@H](Cc1c[nH]c2ccccc12)C(=O)N[C@H](CCCCN)C(=O)NCC(=O)O)[C@H](C)CC)C(C)C [HYD1]
cell death in normal PBMC [1]: more potent in MM cells (H929) compared to normal hematopoietic cells

CCCC[C@@H]1NC(=O)CN(S(C)(=O)=O)CCNC(=O)[C@H](CCCCN)NC(=O)[C@H](CC(C)C)NC(=O)[C@H](CCCCN)NC(=O)[C@H](CCC(N)=O)NC(=O)[C@H](CCCCN)NC(=O)COC[C@H]2CCCN2C(=O)[C@H](Cc2c[nH]c3ccccc23)NC(=O)[C@H](C)NC(=O)[C@H](C(C)C)NC(=O)[C@H](C(C)C)NC1=O [Peptide 20, KQKLKT1N*VVAWT3] (Ms-[N(2-Aminoethyl)Gly][Nle]VVAW[dProlinol(O-CH2CO)]KQKLK; lactam 1-C)
IC50 ([2]; 24 h): 18 µM

CCCC[C@@H]1NC(=O)CN(S(C)(=O)=O)CCNC(=O)[C@H](CCCCN)NC(=O)[C@H](CCC(N)=O)NC(=O)[C@H](CCCCN)NC(=O)[C@H](CC(C)C)NC(=O)[C@H](CCCCN)NC(=O)COC[C@H]2CCCN2C(=O)[C@H](Cc2c[nH]c3ccccc23)NC(=O)[C@H](C)NC(=O)[C@H](C(C)C)NC(=O)[C@H](C(C)C)NC1=O [Peptide 21, KLKQKT1N*VVAWT3] (Ms-[N(2-Aminoethyl)Gly][Nle]VVAW[dProlinol(O-CH2CO)]KLKQK; lactam 1-C)
IC50 ([2]; 24 h): 25 µM

CCCC[C@@H]1NC(=O)[C@H](C(C)C)NC(=O)[C@H](C(C)C)NC(=O)[C@H](C)NC(=O)[C@H](Cc2c[nH]c3ccccc23)NC(=O)COC[C@H]2CCCN2C(=O)[C@H](CCCCN)NC(=O)CN(C)C(=O)[C@H](CCCCN)NC(=O)CN(C)C(=O)[C@H](CCCCN)NC(=O)COC[C@H]2CCCN2C1=O [Peptide 23, KXKXKT3WAVVN*T3] (cyclo(K[Sar]K[Sar]K[dProlinol(O-CH2CO)]WAVV[Nle][dProlinol(O-CH2CO)]))
bioactivity of cyclic III peptide analogs, in words ([2]; SAR discussion of Table 8): poor bioactivity

CCCC[C@@H]1NC(=O)CN(S(C)(=O)=O)CCNC(=O)[C@H](CCCCN)NC(=O)[C@H](CC(C)C)NC(=O)[C@H](CCCCN)NC(=O)[C@H](CC(C)C)NC(=O)[C@H](CCCCN)NC(=O)COC[C@H]2CCCN2C(=O)[C@H](Cc2c[nH]c3ccccc23)NC(=O)[C@H](C)NC(=O)[C@H](CC(C)C)NC(=O)[C@H](C(C)C)NC1=O [Peptide 24, KLKLKT1N*VLAWT3] (Ms-[N(2-Aminoethyl)Gly][Nle]VLAW[dProlinol(O-CH2CO)]KLKLK; lactam 1-C)
IC50 [2, 6]: 10 µM

CCCC[C@@H]1NC(=O)CN(S(C)(=O)=O)CCNC(=O)[C@H](CCCCN)NC(=O)[C@H](CC(C)C)NC(=O)[C@H](CCCCN)NC(=O)[C@H](CC(C)C)NC(=O)[C@H](CCCCN)NC(=O)COC[C@H]2CCCN2C(=O)[C@H](Cc2c[nH]c3ccccc23)NC(=O)[C@H](C)NC(=O)[C@H]([C@@H](C)CC)NC(=O)[C@H](C(C)C)NC1=O [Peptide 25, KLKLKT1N*VIAWT3] (Ms-[N(2-Aminoethyl)Gly][Nle]VIAW[dProlinol(O-CH2CO)]KLKLK; lactam 1-C)
IC50 [2, 6]: 10 µM

CCCC[C@@H]1NC(=O)CN(S(C)(=O)=O)CCNC(=O)[C@H](CCCCN)NC(=O)[C@H](CC(C)C)NC(=O)[C@H](CCCCN)NC(=O)[C@H](CC(C)C)NC(=O)[C@H](CCCCN)NC(=O)COC[C@H]2CCCN2C(=O)[C@H](Cc2c[nH]c3ccccc23)NC(=O)[C@H](C)NC(=O)[C@H](Cc2ccccc2)NC(=O)[C@H](C(C)C)NC1=O [Peptide 26, KLKLKT1N*VFAWT3] (Ms-[N(2-Aminoethyl)Gly][Nle]VFAW[dProlinol(O-CH2CO)]KLKLK; lactam 1-C)
IC50 [2, 6]: 9 µM

CCCC[C@@H]1NC(=O)CN(S(C)(=O)=O)CCNC(=O)[C@H](CCCCN)NC(=O)[C@H](CC(C)C)NC(=O)[C@H](CCCCN)NC(=O)[C@H](CC(C)C)NC(=O)[C@H](CCCCN)NC(=O)COC[C@H]2CCCN2C(=O)[C@H](Cc2c[nH]c3ccccc23)NC(=O)[C@H](C)NC(=O)[C@H](C(C)C)NC(=O)[C@H](C(C)C)NC1=O [c-HYD1] (Ms-[N(2-Aminoethyl)Gly][Nle]VVAW[dProlinol(O-CH2CO)]KLKLK; lactam 1-C)
weight loss and overt signs of toxicity [3]: No weight loss or any overt signs of toxicity were observed
fold more potent than the parent linear HYD1 peptide ([2]; H929 cells): 30 fold
IC50 ([2]; H929 cells, 24 hours, Topro-3 and FACS, read-out: IC50 value in H929 cells): 1.2 µM
tumor growth (circulating Kappa levels) [4]: significantly reduces tumor growth

CSCC[C@H]1NC(=O)CN(S(C)(=O)=O)CCNC(=O)[C@@H](CCCCN)NC(=O)[C@@H](CC(C)C)NC(=O)[C@@H](CCCCN)NC(=O)[C@@H](CC(C)C)NC(=O)[C@@H](CCCCN)NC(=O)CN(S(C)(=O)=O)CCNC(=O)[C@@H](Cc2c[nH]c3ccccc23)NC(=O)[C@@H](CO)NC(=O)[C@@H](C(C)C)NC(=O)[C@@H](C(C)C)NC1=O [cyclic D-HYD1]
activity relative to linear parent peptide (linear D-HYD1) ([2]; H929 cells): twice as active
activity relative to linear parent peptide (linear D-HYD1) ([2]; H929 cells, listed as c-D-HYD1): about twice as active

COc1cccc2c1C(=O)c1c(O)c3c(c(O)c1C2=O)C[C@@](O)(C(=O)CO)C[C@@H]3O[C@H]1C[C@H](N)[C@H](O)[C@H](C)O1 [doxorubicin]
synergy with integrin interaction inhibitors, in words [5]: strong synergism

L-HYD1: the inverso (L-HYD1) cyclic compound (cyclo(KLKLKMVVSW)-T1; not fully specified (residue 5))
potency relative to cyclic D-HYD1 ([2]; H929 cells): 2 fold

MVVAW: cyclic compound with recognition strand MVVAW (SEQ ID NO:35), S replaced by A (also: recognition strand of a larger cyclic compound)
fold more potent than the parent linear HYD1 peptide ([2]; H929 cells): approximately 10 fold

NorLeuVVAW: cyclic compound combining both modifications, recognition strand NorLeuVVAW (SEQ ID NO:41) ([Nle]VVAW; also: cyclic, closure not given here)
fold more potent than the parent linear HYD1 peptide ([2]; H929 cells): 30 fold

NorLeuVVSW: cyclic compound with recognition strand NorLeuVVSW (SEQ ID NO:39), methionine replaced by nor-Leucine ([Nle]VVSW; also: cyclic compound, closure not given here)
fold more potent than the parent linear HYD1 peptide ([2]; H929 cells): 15 fold

arsenic trioxide
synergy with integrin interaction inhibitors, in words [5]: strong synergism
